## Nc1cccnc1
In acetone, 288.15 K
  solubility (mole fraction): 0.155
In acetone, 293.15 K
  solubility (mole fraction): 0.194
In acetone, 298.15 K
  solubility (mole fraction): 0.244
In acetone, 303.15 K
  solubility (mole fraction): 0.305
In acetone, 308.15 K
  solubility (mole fraction): 0.38
In acetone, 313.15 K
  solubility (mole fraction): 0.468
In acetone, 318.15 K
  solubility (mole fraction): 0.565
In acetone, 323.15 K
  solubility (mole fraction): 0.668
In n-butyl acetate, 288.15 K
  solubility (mole fraction): 0.432
In n-butyl acetate, 293.15 K
  solubility (mole fraction): 0.481
In n-butyl acetate, 298.15 K
  solubility (mole fraction): 0.537
In n-butyl acetate, 303.15 K
  solubility (mole fraction): 0.591
In n-butyl acetate, 308.15 K
  solubility (mole fraction): 0.65
In n-butyl acetate, 313.15 K
  solubility (mole fraction): 0.712
In n-butyl acetate, 318.15 K
  solubility (mole fraction): 0.77
In n-butyl acetate, 323.15 K
  solubility (mole fraction): 0.835

From BigSolDB 2.1
